Measurements published in ChEMBL document CHEMBL1201862, “PubChem BioAssay data set” (2004).
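Dose response: 5 concentrations. Exposure: 48 h. Format: 96-well plates. Endpoint: linear interpolation; highest concentration if not reached. Abbreviation: GI50, concentration required for 50% inhibition of growth.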 The source made the active and inactive calls. Cut-off read from the data, not from the text of the source: active = GI50 up to about 1.1 µM and inactive = higher.

Legend:
Assay in all cases: inhibition of tumour cell growth, NCI panel, 48 h
HT-29 = system: HT-29
SNB-19 = system: SNB-19
BT-549 = system: BT-549
MCF7 = system: MCF7
Hs-578T = system: Hs-578T
SK-MEL-5 = system: SK-MEL-5
OVCAR-4 = system: OVCAR-4
SR = system: SR
UACC-62 = system: UACC-62
DMS-114 = system: DMS-114
TK-10 = system: TK-10
SK-MEL-2 = system: SK-MEL-2
SN12C = system: SN12C
HCT-116 = system: HCT-116
NCI-H460 = system: NCI-H460
MDA-MB-231 = system: MDA-MB-231
K562 = system: K562
RPMI-8226 = system: RPMI-8226
LOX IMVI = system: LOX IMVI
OVCAR-8 = system: OVCAR-8

SMILES	GI50 (HT-29)	GI50 (SNB-19)	GI50 (BT-549)	GI50 (MCF7)	GI50 (Hs-578T)	GI50 (SK-MEL-5)	GI50 (OVCAR-4)	GI50 (SR)	GI50 (UACC-62)	GI50 (DMS-114)	GI50 (TK-10)	GI50 (SK-MEL-2)	GI50 (SN12C)	GI50 (HCT-116)	GI50 (NCI-H460)	GI50 (MDA-MB-231)	GI50 (K562)	GI50 (RPMI-8226)	GI50 (LOX IMVI)	GI50 (OVCAR-8)
CC[C@](O)(C(=O)O)c1cc2n(c(=O)c1CO)Cc1cc3ccccc3nc1-2	0.0461 µM (active)	0.025 µM (active)	0.0791 µM (active)	0.061 µM (active)	6.05 µM (inactive)	0.0333 µM (active)	0.214 µM (active)	0.01 µM (active)	0.025 µM (active)	0.025 µM (active)	0.282 µM (active)	0.23 µM (active)	0.025 µM (active)	0.0308 µM (active)	0.025 µM (active)	0.665 µM (active)				
COc1cc(C(=O)NC2CCc3cc(OC)c(OC)c(OC)c3-c3ccc(OC)c(=O)cc32)cc(OC)c1OC (centres undefined)	0.0467 µM (active)	0.138 µM (active)	0.083 µM (active)	< 0.0176 µM (active)	0.025 µM (active)	0.0553 µM (active)	15.8 µM (inactive)	0.0249 µM (active)	0.0711 µM (active)	0.0233 µM (active)	1.49 µM (inactive)	0.0935 µM (active)	0.199 µM (active)	0.043 µM (active)	0.143 µM (active)	0.0306 µM (active)	0.0403 µM (active)	0.0279 µM (active)	0.0424 µM (active)	0.201 µM (active)
CC(=O)OC1=CC(n2cc(F)c(=O)[nH]c2=O)OC(C)C1=O (centres undefined)	10.7 µM (inactive)	61.9 µM (inactive)	22.2 µM (inactive)	4.28 µM (inactive)	> 88.3 µM (inactive)	13.2 µM (inactive)	> 82.2 µM (inactive)	26.1 µM (inactive)	24.9 µM (inactive)	99.3 µM (inactive)	> 77.4 µM (inactive)	> 100 µM (inactive)	67.8 µM (inactive)	10.8 µM (inactive)	4.59 µM (inactive)	> 88.7 µM (inactive)	57 µM (inactive)	26.5 µM (inactive)	14.6 µM (inactive)	40.7 µM (inactive)
CN(C)c1ccc(/C=C2\C[N+](C)(C)C/C(=C\c3ccc(N(C)C)cc3)C2=O)cc1	9.18 µM (inactive)	17.5 µM (inactive)	10.5 µM (inactive)	5.4 µM (inactive)	50 µM (inactive)	11.6 µM (inactive)	21.5 µM (inactive)	8.09 µM (inactive)	13.6 µM (inactive)	7.53 µM (inactive)	78.7 µM (inactive)	14.9 µM (inactive)	20.5 µM (inactive)	8.93 µM (inactive)	13.6 µM (inactive)	17.9 µM (inactive)	7.98 µM (inactive)	3.47 µM (inactive)	14.9 µM (inactive)	23.9 µM (inactive)
CS/C(=N\C(=S)Nc1ccccc1)Nc1ccccc1	6.37 µM (inactive)	21.7 µM (inactive)				6.01 µM (inactive)	26.3 µM (inactive)	15.4 µM (inactive)	4.58 µM (inactive)	0.743 µM (active)	14.2 µM (inactive)	15.5 µM (inactive)	18.3 µM (inactive)	> 10 µM (inactive)	12 µM (inactive)		12.6 µM (inactive)	12.8 µM (inactive)	16.7 µM (inactive)	25.4 µM (inactive)
O=C(c1ccc(Cl)cc1)c1ccc(OCC(=O)N2CCN(c3ccccc3)CC2)cc1	> 100 µM (inactive)	> 100 µM (inactive)				41.6 µM (inactive)	> 100 µM (inactive)	84.5 µM (inactive)	> 100 µM (inactive)	33.2 µM (inactive)	> 100 µM (inactive)	> 100 µM (inactive)	> 100 µM (inactive)	> 100 µM (inactive)	> 100 µM (inactive)		> 100 µM (inactive)	> 100 µM (inactive)	> 100 µM (inactive)	> 100 µM (inactive)
O=C1OC(CC(=O)c2ccccc2Cl)C(Cl)=C1Cl (centres undefined)	> 100 µM (inactive)	> 100 µM (inactive)				> 100 µM (inactive)	> 100 µM (inactive)	> 100 µM (inactive)	> 100 µM (inactive)	> 100 µM (inactive)	> 100 µM (inactive)	> 100 µM (inactive)	> 100 µM (inactive)	> 100 µM (inactive)	> 100 µM (inactive)		> 100 µM (inactive)	> 100 µM (inactive)	> 100 µM (inactive)	> 100 µM (inactive)
